Data on 14 compounds can be found in patent publication US9340577B2, “HLA binding motifs and peptides and their uses” (priority 1992, dated 2016).

Broadly, the IC50 is the midpoint of a concentration-inhibition curve.

Holding throughout (assay): biochemical
One experiment has as its target DRB5*0101 (Homo sapiens, UniProt P01903+Q30154).
The next experiment addresses DRB1*0301 (Homo sapiens, UniProt P01903+P01911, A100K/A102G/A103R/A169T/F55Y/I96L/K41T/L162R/M171V/P40S/Q125H/Q178H/Q39Y/R42S/S66N/T106N/T262R/W38E/Y61H). It is filed as binding.
The next experiment addresses DRB3*0101 (Homo sapiens, UniProt P01903+P79483). In kind it is binding.
The target in a further experiment is DR7 (DRB1*0701) (Homo sapiens, UniProt P01903+P01911, A100R/A102G/A103Q/D57E/D86V/E43K/F76Y/K127E/L162R/M171V/P40G/Q125H/Q99D/R33Q/R42Y/R54Q/S133A/S66F/T210M/V115G/Y107V/Y59L/Y89S). It is filed as binding.
The target in a further experiment is DR4w4 (DRB1*0401) (Homo sapiens, UniProt P01903+P01911, A100K/A169T/F76Y/I96L/K127E/L162R/M171V/N62H/P40V/Q125Y/R42H/S133A/S149N/S66Y/V115G/V209L/W38E). In kind it is binding.
The target in a further experiment is DRB1*0802 (Homo sapiens, UniProt P01903+P01911, A100R/A103L/A169T/F76Y/H45Y/I96F/K41T/L162R/M171V/P40S/Q125H/Q178H/Q39Y/Q99D/R218S/R42G/S66Y/V115G/W38E). In kind it is binding.
The target of the next experiment is DRB1*0901 (Homo sapiens, UniProt P01903+P01911, A100R/A103E/D57H/D86V/F55Y/F60I/F76Y/I96F/K127E/L162R/M171V/P40D/Q125H/Q99R/R33Q/R42F/S133A/S66N/T210M/V115G/W38K/Y107V/Y59G/Y89S). In kind it is binding.
The target in the next experiment is DRB1*1501 (Homo sapiens, UniProt P01903+P01911). In kind it is binding.
Another experiment has as its target DRB1*1201 (Homo sapiens, UniProt P01903+P01911, A100R/A169T/D57E/D86V/F55L/H45Y/K41T/L162R/M171V/P40S/Q125H/Q178H/Q39Y/Q99D/R42G/S66L/T262R/V114A/V67L/W38E/Y59H/Y61H/Y89S). In kind it is binding.
The next experiment deals with DRB1*1101 (Homo sapiens, UniProt P01903+P01911, A100R/A169T/A87E/I96F/K41T/L162R/M171V/P40S/Q125H/Q178H/Q39Y/Q99D/R42S/S66Y/T262R/V115G/W38E).
Sequence of DRB1*1101 (P01903 26-254 limits assumed, other chains not shown): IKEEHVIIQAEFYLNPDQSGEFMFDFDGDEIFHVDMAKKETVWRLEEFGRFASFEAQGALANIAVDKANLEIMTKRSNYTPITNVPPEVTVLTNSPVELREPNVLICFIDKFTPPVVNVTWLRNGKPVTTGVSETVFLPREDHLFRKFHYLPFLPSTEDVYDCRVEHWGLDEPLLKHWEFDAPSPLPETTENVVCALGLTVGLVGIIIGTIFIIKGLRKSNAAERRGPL
A further experiment concerns the target DRB4*0101 (Homo sapiens, UniProt P01903+P13762, G164S). In kind it is binding.
A further experiment concerns the target DR1 (DRB1*0101) (Homo sapiens, UniProt P01903+P01911, A100R/D57E/F55L/F60I/F76Y/I96L/L162R/M171V/P40L/Q125E/R42F/V115G/Y59C). It is filed as binding.
The target of the next experiment is DRB1*0405 (Homo sapiens, UniProt P01903+P01911, A100R/A169T/D86S/F76Y/I96L/K127E/L162R/M171V/N62H/P40V/Q125Y/R42H/S133A/S149N/S66Y/V115G/V209L/W38E). In kind it is binding.
The next experiment concerns the target DRB1*1302 (Homo sapiens, UniProt P01903+P01911, A100E/A169T/K41T/L162R/M171V/P40S/Q125H/Q178H/Q39Y/Q99D/R42S/S66N/T262R/V115G/W38E/Y61H). In kind it is binding.

Like-named read-outs stand apart in the source and are kept apart here. No end group written: not given here. Some results are limits rather than exact numbers.

Sequence of DRB1*1302 (P01903 26-254 limits assumed, other chains not shown): as above
Sequence of DRB1*0301 (P01903 26-254 limits assumed, other chains not shown): as above

With `CC[C@H](C)[C@H](N)C(=O)N[C@@H](CC(C)C)C(=O)N[C@@H](CC(C)C)C(=O)N[C@@H](Cc1c[nH]c2ccccc12)C(=O)N[C@@H](CCC(N)=O)C(=O)N1CCC[C@H]1C(=O)N[C@H](C(=O)N1CCC[C@H]1C(=O)N[C@H](C(=O)N[C@@H](Cc1c[nH]cn1)C(=O)N[C@H](C(=O)N[C@H](C(=O)N1CCC[C@H]1C(=O)N[C@@H](CC(C)C)C(=O)N[C@@H](CO)C(=O)O)C(C)C)[C@@H](C)O)C(C)C)[C@@H](C)CC` [Peptide 68.0038], the IC50 at DRB5*0101 (Binding affinity DRB5 *0101), at DRB1*0301 and against DRB3*0101 was above 20 µM each time.
`CC[C@H](C)[C@H](NC(=O)CNC(=O)[C@H](Cc1ccc(O)cc1)NC(=O)[C@H](CC(C)C)NC(=O)[C@H](CO)NC(=O)[C@H](CC(C)C)NC(=O)[C@H](CC(C)C)NC(=O)[C@H](CO)NC(=O)[C@H](CC(C)C)NC(=O)[C@H](CCC(=O)O)NC(=O)[C@H](CO)NC(=O)[C@@H](N)CC(C)C)C(=O)N[C@@H](Cc1c[nH]cn1)C(=O)N[C@@H](CCCCN)C(=O)N[C@@H](CCC(N)=O)C(=O)O` [Peptide 68.0044]: the IC50 at DR7 (DRB1*0701), at DRB1*0301 and against DRB3*0101 was above 20 µM each time.
As to `CSCC[C@H](NC(=O)CNC(=O)CNC(=O)[C@H](CCCNC(=N)N)NC(=O)[C@@H](NC(=O)[C@H](CCC(N)=O)NC(=O)[C@H](C)NC(=O)[C@@H](NC(=O)[C@@H](NC(=O)[C@H](CC(C)C)NC(=O)[C@H](Cc1c[nH]cn1)NC(=O)[C@H](Cc1ccc(O)cc1)NC(=O)[C@@H](N)CCCCN)[C@@H](C)O)C(C)C)C(C)C)C(=O)N[C@H](C(=O)N[C@@H](Cc1ccccc1)C(=O)O)C(C)C` [Peptide 68.0120], the half-maximal inhibitory concentration (IC50) against DRB1*0301 and against DRB3*0101 was above 20 µM throughout.
For the compound `CC[C@H](C)[C@H](N)C(=O)N[C@@H](CO)C(=O)N[C@H](C(=O)N[C@H](C(=O)N[C@@H](CC(N)=O)C(=O)N[C@@H](CCC(=O)O)C(=O)N[C@@H](CC(=O)O)C(=O)NCC(=O)N[C@@H](CC(N)=O)C(=O)N[C@@H](CCC(=O)O)C(=O)N[C@H](C(=O)N[C@@H](Cc1ccccc1)C(=O)N[C@@H](CC(N)=O)C(=O)N[C@H](C(=O)N[C@@H](CO)C(=O)O)[C@@H](C)O)[C@@H](C)CC)[C@@H](C)CC)[C@@H](C)CC` [Peptide 68.0166], the half-inhibitory concentration (IC50) on DR4w4 (DRB1*0401) was above 20 µM; at DRB1*0802 it was above 20 µM; at DRB5*0101 (Binding affinity DRB5 *0101), above 20 µM; against DRB5*0101 (DRB5*0101) it was above 37.8 µM; at DRB1*0901, above 20 µM; against DR7 (DRB1*0701), above 20 µM. Moreover, the IC50 is 3.01 µM against DRB1*1501; 0.035 µM against DRB3*0101; 10.7 µM at DRB1*1201; above 20 µM at DRB1*1101 (Binding affinity DRB1 *1101); above 18.9 µM at DRB1*1101 (DRB1*1101); 6.39 µM on DRB4*0101.
`CC[C@H](C)[C@H](NC(=O)[C@@H](N)CCCCN)C(=O)N[C@@H](Cc1ccccc1)C(=O)NCC(=O)N[C@@H](CO)C(=O)N[C@@H](CC(C)C)C(=O)N[C@@H](C)C(=O)N[C@@H](Cc1ccccc1)C(=O)N[C@@H](CC(C)C)C(=O)N1CCC[C@H]1C(=O)N[C@@H](CCC(=O)O)C(=O)N[C@@H](CO)C(=O)N[C@@H](Cc1ccccc1)C(=O)N[C@@H](CC(=O)O)C(=O)NCC(=O)N[C@@H](CC(=O)O)C(=O)N1CCC[C@H]1C(=O)N[C@@H](C)C(=O)O` [Peptide 1533.07]: the half-inhibitory concentration (IC50) against DRB1*0802, against DRB1*0301, at DRB3*0101 and at DRB1*1101 (Binding affinity DRB1 *1101) was above 20 µM in each case.
As to `CC[C@H](C)[C@H](NC(=O)[C@H](C)NC(=O)[C@@H](NC(=O)[C@@H](NC(=O)[C@H](CC(N)=O)NC(=O)[C@H](CC(C)C)NC(=O)[C@H](Cc1ccccc1)NC(=O)[C@H](CCCCN)NC(=O)[C@@H](NC(=O)[C@H](CCCNC(=N)N)NC(=O)[C@H](CCC(N)=O)NC(=O)[C@H](CCCCN)NC(=O)[C@@H](N)CCC(=O)O)[C@@H](C)O)[C@@H](C)O)C(C)C)C(=O)N1CCC[C@H]1C(=O)N[C@@H](CC(=O)O)C(=O)O` [Peptide 1601.19], the IC50 on DR4w4 (DRB1*0401) is 4.5 µM; on DRB1*0802 it was above 20 µM; against DRB5*0101, above 20 µM; at DRB1*0901, 0.284 µM; on DR7 (DRB1*0701), 0.123 µM; against DRB1*0301, 11.8 µM. For the same compound, the half-inhibitory concentration (IC50) on DR1 (DRB1*0101) is 0.061 µM; at DRB1*1501, above 20 µM; at DRB3*0101 it was above 20 µM; against DRB1*1101, above 20 µM; on DRB4*0101 it was 6.45 µM.
AATYNFAVLKLMGRGTKF [Peptide F025.08]: the IC50 against DRB1*0301 and against DRB3*0101 was above 20 µM in each case.
Turning to EYILDLHPEPTDLFC [Peptide 1543.51], the 50% inhibitory concentration (IC50) against DRB1*0802 was 16.3 µM; against DRB1*0405, 1.14 µM; on DRB1*1302, 4.75 µM; at DRB5*0101 (Binding affinity DRB5 *0101) it was above 20 µM; at DRB1*0901 it was above 20 µM; against DR7 (DRB1*0701) it was above 20 µM. Moreover, the IC50 against DR1 (DRB1*0101) was 0.189 µM; at DRB1*1501 it was above 20 µM; on DRB3*0101, 0.083 µM; on DRB1*1201, 2.6 µM; at DRB1*1101 (Binding affinity DRB1 *1101), 19.5 µM; on DRB4*0101, 0.0082 µM.
For the compound GRVNTHVHNPLLCSS [Peptide 1601.34], the concentration for half-maximal inhibition (IC50) is above 20 µM on DR4w4 (DRB1*0401); 2.69 µM against DRB1*0802; 0.865 µM against DRB1*1302; above 20 µM on DRB5*0101 (Binding affinity DRB5 *0101); 3.35 µM against DRB1*0901; 6.02 µM against DR7 (DRB1*0701). For the same compound, the IC50 against DRB1*0301 is 9.95 µM; at DR1 (DRB1*0101) it was 0.873 µM; against DRB3*0101, above 20 µM; on DRB1*1101 (Binding affinity DRB1 *1101) it was above 20 µM; against DRB4*0101, 5.98 µM.
In the case of QIQVFETLEET [Peptide 1385.01], the IC50 at DR4w4 (DRB1*0401), at DRB1*1302, against DRB1*0301, at DR1 (DRB1*0101), against DRB3*0101 and at DRB4*0101 was above 20 µM throughout.
For the compound QKGRGYRGQHQAHSLERVCH [Peptide F025.05], the half-maximal inhibitory concentration (IC50) at DRB1*0301, against DRB1*1501, against DRB3*0101 and against DRB1*1101 ([…]) was above 20 µM in each case.
For the compound SADDLRAFQQLFLNT [Peptide 1543.07], the half-maximal inhibitory concentration (IC50) is 7 µM against DRB1*0802; 0.411 µM against DRB1*0405; 3.13 µM at DRB1*1302; above 20 µM at DRB5*0101 (Binding affinity DRB5 *0101); 0.559 µM against DRB1*0901; 0.124 µM against DR7 (DRB1*0701). Besides, the IC50 on DR1 (DRB1*0101) is 0.295 µM; against DRB3*0101, above 20 µM; on DRB1*1201, 0.305 µM; at DRB1*1101 (Binding affinity DRB1 *1101), 3.59 µM; against DRB4*0101, 0.27 µM.
Take VHEGIRTYFVQFKDD [Peptide 1601.05]: the IC50 is 12.2 µM against DRB1*0802; above 20 µM at DRB5*0101 (Binding affinity DRB5 *0101); 5.86 µM against DRB1*0901; 5.73 µM on DR7 (DRB1*0701); 9.33 µM at DRB1*0301; 9.28 µM on DR1 (DRB1*0101). Besides, the IC50 against DRB1*1501 was 0.038 µM; on DRB3*0101 it was 9.92 µM; at DRB1*1101 (Binding affinity DRB1 *1101), above 20 µM; on DRB4*0101 it was 1.8 µM.
In the case of VVTIPNSVQISVGYM [Peptide 1601.41], the IC50 against DR4w4 (DRB1*0401) is 0.835 µM; at DRB5*0101 (Binding affinity DRB5 *0101), above 20 µM; at DR7 (DRB1*0701) it was 0.071 µM; at DRB1*0301, above 20 µM; against DRB1*1501 it was 3.44 µM; against DRB3*0101, above 20 µM. In addition, at DRB1*1101 (Binding affinity DRB1 *1101), the concentration for half-maximal inhibition (IC50) worked out at 4.22 µM.
